Results: US20090186878A1, “CRYSTALLINE FORMS OF A FARNESYL DIBENZODIAZEPINONE” (THALLION PHARMACEUTICALS INC., priority 2006, published 2009)
Values after ≈ are worked out from the molar mass of the structure shown. Blank lines part the entries; values can stand above or below the compound they belong to.

Key:
[1] = Solubility determination in water (HPLC-MS of saturated aqueous solutions); assay type: physicochemical; settings: for Solubility: in water, ambient temperature, after 24 hours, not at equilibrium, supernatant by HPLC-MS, LOD 10 ng/mL
Procedure: The drug solubility of a sample of each of crystal Form I and Form II and two samples of Form III (obtained from drying of Form I and Form II) was evaluated in water using an HPLC-MS method (High performance liquid chromatography apparatus coupled to a mass spectrometer). Saturated aqueous solutions of the crystals were stirred and kept at ambient temperature for 24 hours. Solutions were centrifuged at 3600 rpm and an aliquot of supernatant was analyzed by HPLC-MS.

[2] = Thermal treatment (annealing/drying) of crystals, check for decomposition; assay type: physicochemical; settings: heated at 60, 70, 80, 90 or 100° C. under air atmosphere; by 1H NMR, TGA, XRPD and solubility
Procedure: Crystal Form III was produced by annealing of either Form I or Form II crystals using a variety of temperatures and under various conditions such as air or inert atmosphere or under reduced pressure.
A sample of Compound 1 crystals of Form II (1 mg to 30 g) was dried for 6 hours in an oven at an isothermal 60° C. temperature under reduced pressure (1-4 Torr) using an Edwards RV8 pump (or in a vacuum oven). Sample was allowed to cool to room temperature and crystal Form III obtained was analyzed as described in Examples 3, 4, 5 and 6.
Annealing process was done above the temperature of solvent elimination. No degradation was observed up to 160° C. when crystals were annealed under nitrogen or under reduced pressure. Annealing was also shown to proceed slowly at temperatures as low as 50° C.
As an example, when temperatures of 60, 70 and 90° C. were used, subsequent DSC analysis gave melting points respectively of 185.5, 184.5 and 183.4° C., and a mass enthalpy respectively of 84.6, 66.8 and 64.9 J/g. A slight degradation (less than 4%) was observed (NMR and solubility) when a temperature of 120° C. was used (melting point of 174° C., mass enthalpy of 39.7 J/g) under air atmosphere.

Compound: CC(C)=CCC/C(C)=C/CC/C(C)=C/CN1C(=O)c2cccc(O)c2Nc2c(O)cc(O)cc21 [Form I (MeOH/water)]
Solubility [1]: 6.59 µg/mL (≈ 14.2 µM) | Decomposition on transformation to Form III [2]: without observable decomposition

Compound: CC(C)=CCC/C(C)=C/CC/C(C)=C/CN1C(=O)c2cccc(O)c2Nc2c(O)cc(O)cc21 [Form II (EtOH/water)]
Solubility [1]: 3.98 µg/mL (≈ 8.6 µM) | Decomposition on transformation to Form III [2]: without observable decomposition

Compound: CC(C)=CCC/C(C)=C/CC/C(C)=C/CN1C(=O)c2cccc(O)c2Nc2c(O)cc(O)cc21 [Form III]
Relative (thermodynamic) stability judged from solubility ([1]; from Table 3 water solubility): clearly more stable than crystal Forms I and II

Results, then the compound that gave them:

Solubility [1]: 0.65 µg/mL (≈ 1.41 µM)
Compound: CC(C)=CCC/C(C)=C/CC/C(C)=C/CN1C(=O)c2cccc(O)c2Nc2c(O)cc(O)cc21 [Form III (annealed Form I)]

Solubility [1]: <LOD*
Compound: CC(C)=CCC/C(C)=C/CC/C(C)=C/CN1C(=O)c2cccc(O)c2Nc2c(O)cc(O)cc21 [Form III (annealed Form II)]
